Tested on: PC-3 cells
Test: Cell growth of PC-3 cells (cell counting)
Type: cell-based, human
Protocol: The PC-3 and DU-145 cells (the cell number of 1×10^5/in 1 ml of a culture fluid per hole using a 24-hole plate) were cultured in a DMEM culture fluid (containing 10% of FBS, 1% of P/S, and 1% of fungizone) containing the DHMBA (1 and 10 μM) under 5% of CO2, at 37° C., for one, two, three, four, and six days. […] After the culture, 0.1 ml of 0.05% trypsin-EDTA solution obtained by dissolving the cells adhering to the bottom surface of the culture dish in PBS (Thermo Fisher Scientific, Waltham, MA, USA) not containing Ca^2+/Mg^2+ was added, incubation was performed at 37° C. for two minutes to release the adhering cells, and 0.9 ml of the DMEM culture fluid containing 10% of FBS and 1% of P/S was added to stop the reaction. The cell number in the cell suspension was counted by the method described in the item of “Measurement of Cell Number.”
After the culture of the cells, 0.1 ml of 0.05% trypsin-EDTA solution obtained by dissolving the cells adhering to the bottom surface of the culture dish in PBS (Thermo Fisher Scientific, Waltham, MA, USA) not containing Ca^2+/Mg^2+ was added, incubation was performed at 37° C. for two minutes to release the adhering cells, and 0.9 ml of the DMEM culture fluid containing 10% of FBS and 1% of P/S was added to stop the reaction. The visible cells were counted by the Olympus MTV-3 microscope using a hemocytometer (Sigma-Aldrich).
FIG. 1(C) is a diagram in which the PC-3 cells (1×10^5 cells/per well of a 24-well plate) were cultured under 5% of CO2, at 37° C., for one to six days in a DMEM culture fluid (containing 10% of FBS, 1% of P/S, and 1% of fungizone) containing the DHMBA (10 μM).
In FIGS. 1(D) and 1(E), the PC-3 cells (1×10^5 cells/per well of a 24-well plate) were cultured under 5% of CO2, at 37° C., for three (FIG. 1D) and six (FIG. 1E) days in a DMEM culture fluid (containing 10% of FBS, 1% of P/S, and 1% of fungizone) containing the DHMBA (0.01, 0.1, 1, 10, 100, and 1000 μM). After the culture, the cells adhered to the bottom surface of the dish were removed and counted. […] 1-way ANOVA, Tukey-Kramer post-test.
FIGS. 3(A) and 3(B) are diagrams in which the PC-3 cells (1×10^5 cells/ml/per well of a 24-well plate) were cultured under 5% of CO2, at 37° C., for three days in a DMEM culture fluid (containing 10% of FBS, 1% of P/S, and 1% of fungizone) containing the DHMBA (10 μM) containing cell cycle inhibitors, roscovitine (10 and 100 nM), butyrate (10 and 100 μM), and sulforaphane (1 and 10 nM).
After the culture, the cells adhered to the dish were removed and counted. […] 1-way ANOVA, Tukey-Kramer post-test.
In the drawing, the PC-3 cells (1×10^5/in 1 ml of a culture fluid per hole using a 24-hole plate) were cultured under 5% of CO2, at 37° C., for three days in a DMEM culture fluid (containing 10% of FBS, 1% of P/S, and 1% of fungizone) in the presence of the DHMBA (10 μM) and an aryl hydrocarbon receptor inhibitor CH223191 (1, 10, or 25 μM) to examine the action on cell growth.

## COc1c(O)cc(CO)cc1O [DHMBA, 3,5-dihydroxy-4-methoxybenzyl alcohol]
DHMBA 0.01 μM
  effect on cell growth at low concentration: significant effect
DHMBA 10 μM with CH223191 1, 10, or 25 μM, three days
  cell growth inhibitory effect of DHMBA in the presence of CH223191: found not to be expressed
DHMBA 10 μM with roscovitine, butyrate or sulforaphane, three days
  cell growth inhibitory effect of DHMBA in the presence of cell cycle inhibitors: not observed
DHMBA 10 μM with wortmannin, PD98059 or staurosporine, three days
  cell growth inhibitory effect of DHMBA in the presence of signaling inhibitors: no significant cell growth inhibitory effect
DHMBA 10 μM, one to six days
  cell growth: inhibited
